Measured values reported in article PMC10407255, “Comparison of activity, structure, and dynamics of SF-1 and LRH-1 complexed with small molecule modulators” (The Journal of Biological Chemistry, 2023).
Where two headings read alike, the source gives them in different places.

Legend:
LRH-1 = molecular target: T1, LRH-1 (Homo sapiens, UniProt O00482); assay: Luciferase reporter assay, LRH-1, HeLa cells; type: cell-based; details: for specificity for LRH-1 over SF-1 in reporter assays: 0.1, 1, and 10 μM, LRH-1 vs SF-1 reporter; for LRH-1 activation in luciferase reporter assay: small molecule at 0.1, 1, and 10 μM, relative to DMSO control
T1 construct: expressed in transfected cells; host or cells: HeLa
Description: (§1) Reporter assays were conducted as described previously ([47], [52], [53]). Briefly, HeLa cells were seeded at ∼7500 to 10,000 cells per well in 96-well plates (white-walled, clear bottom) in MEMα + 10% FBS – charcoal/dextran treated. Once cells reached 80 to 90% confluence, they were transfected with LRH-1 (in pCI vector, 5 ng/well) or SF-1 (in pcDNA vector, 5 ng/well), a reporter plasmid with an NR5A response element derived from the SHP promoter cloned upstream of Firefly Luciferase (in pGL3-Basic vector, 50 ng/well), and a plasmid expressing Renilla Luciferase constitutively from a CMV promoter (1 ng/well). Cells were transfected with FuGENE at a ratio of 3:1 (FuGENE:DNA). Twenty-four hours after transfection, compounds were diluted in Opti-MEM and introduced to cells at the final concentrations indicated in figures (final DMSO concentration was 0.37%). Luciferase signal was measured after ∼24 h using the DualGlo kit (Promega) with a BioTek Neo plate reader. Each experiment was conducted with three biological replicates, each with three technical replicates averaged prior to data analysis. Firefly Luciferase signal for each well was divided by the well’s Renilla Luciferase signal intensity and then normalized relative to the DMSO control. Data were analyzed with GraphPad Prism (version 9) using a stimulating dose–response curve (Hill slope = 1).

L265M SF-1 mutant = molecular target: T2, L265M SF-1 mutant (Homo sapiens, UniProt Q13285, L265M); assay: Luciferase reporter assay, L265M SF-1 mutant; type: cell-based; details: 0.1, 1, and 10 µM, relative to DMSO control
T2 construct: expressed in transfected cells; host or cells: HeLa
Description: as §1, with “1). […]” for “1).”

SF-1 LBD [1] = molecular target: T3, SF-1 LBD (Homo sapiens, UniProt Q13285); assay: Differential scanning fluorimetry (thermal shift assay); type: binding; details: for Tm (melting temperature): SF-1 LBD pre-exchanged with DLPC, incubated with small molecule overnight; for positive shift in melting temperature: relative to the DLPC phospholipid control
T3 construct: transformed with the SF-1 LBD (amino acids 218–461) in the pLIC-His vector; made in house; host or cells: E. coli BL21(DE3)-pLysS
Description: Purified SF-1 LBD, pre-exchanged with DLPC (0.2 mg/ml), was combined with small molecules overnight at 4 °C in assay buffer. SYPRO orange dye was added to the complexes the next day, at a final dilution of 1:1000. Complexes were heated at a rate of 0.5 °C/minute on a StepOne Plus thermocycler, using the ROX filter for fluorescence detection. The melting temperature (Tm, 50% unfolding) was calculated using the Bolzman equation GraphPad Prism (version 9). Assays were conducted with nine technical replicates over three experiments.

SF-1 LBD [2] = molecular target: T3, SF-1 LBD; assay: FP assay (6N-FAM forward binding and competition), wild-type SF-1; details: for Ki: FP competition with 10 nM 6N-FAM, 25 nM SF-1 LBD, 95% confidence intervals in brackets, read-out: Ki (inhibition constant)
Description: (§2) FP assays were performed as described previously ([38], [47], [53]). Briefly, experiments were conducted in black, polystyrene, non-binding surface 384-well plates (Corning Inc., Corning, NY) with 30 μl volumes in assay buffer (150 mM NaCl, 20 mM Tris-HCl, 5% glycerol, pH 7.4). […] Polarization was monitored on a Neo plate reader (Biotek, Winooski, VT) at an excitation/emission wavelength of 485/528 nm. Plates were incubated overnight at 4 °C and centrifuged at 2000g for 2 min before polarization measurement. Nine technical replicates were conducted over three experiments and compiled binding data were baseline-corrected to wells with no protein and fit with a one-site binding curve in GraphPad Prism version 7 (GraphPad, Inc, La Jolla, CA). 6N conjugated to fluorescein amidite (FAM) (10 nM/well – 0.8 times the affinity of SF-1 for 6N-FAM) was incubated with SF-1 LBD (25 nM/well – 60% of the forward binding Bmax). Unlabeled compounds were added at concentrations indicated in figures with DMSO in each well held constant at 6.7% v/v. Each experiment was performed two or three times with four technical replicates each. Technical replicates were averaged and normalized independently prior to final data analysis.

SF-1 = molecular target: T4, SF-1 (Homo sapiens, UniProt Q13285); assay: Luciferase reporter assay, SF-1, HeLa cells; type: cell-based; details: for EC50: HeLa cells, ~24 h; for luciferase signal at highest concentration: cells treated with 3e-5 M, potentially indicating cell toxicity or compound insolubility, data excluded; for maximum activation: normalized relative to DMSO control; for SF-1 activation in luciferase reporter assay: small molecule at 0.1, 1, and 10 μM, relative to DMSO control
T4 construct: expressed in transfected cells; host or cells: HeLa
Description: as §1

SF-1 LBD M268L = molecular target: T5, SF-1 LBD M268L (Homo sapiens, UniProt Q13285, M268L); assay: FP assay (forward binding and competition), SF-1 M268L; details: for effect of deep pocket mutation on binding affinity: M268 mutant compared to WT, FP competition
T5 construct: transformed with the SF-1 LBD (amino acids 218–461) in the pLIC-His vector; His (pLIC-His vector); made in house
Description: as §2
(§3) All mutations other than L265M were introduced using the QuikChange II Site-Directed Mutagenesis Kit (Agilent). The Q5 Site-Directed Mutagenesis Kit (New England Biolabs) was used to generate the L265M mutant. All constructs were sequenced prior to use.

SF-1 LBD T272V = molecular target: T6, SF-1 LBD T272V (Homo sapiens, UniProt Q13285, T272V); assay: FP assay (forward binding and competition), SF-1 T272V; details: for effect of deep pocket mutation on binding affinity: T272 mutant compared to WT, FP competition
T6 construct: transformed with the SF-1 LBD (amino acids 218–461) in the pLIC-His vector; His (pLIC-His vector); made in house
Description: as §2, §3

SF-1 LBD Y436F = molecular target: T7, SF-1 LBD Y436F (Homo sapiens, UniProt Q13285, Y436F); assay: FP assay (forward binding and competition), SF-1 Y436F; details: for effect of pocket mouth mutation Y436 on binding affinity: compared to WT, FP competition
T7 construct: transformed with the SF-1 LBD (amino acids 218–461) in the pLIC-His vector; His (pLIC-His vector); made in house
Description: as §2, §3

SF-1 LBD K440A = molecular target: T8, SF-1 LBD K440A (Homo sapiens, UniProt Q13285, K440A); assay: FP assay (forward binding and competition), SF-1 K440A
T8 construct: transformed with the SF-1 LBD (amino acids 218–461) in the pLIC-His vector; His (pLIC-His vector); made in house
Description: as §2
All mutations other than L265M were introduced using the QuikChange II Site-Directed Mutagenesis Kit (Agilent). […]

[3] = molecular target: T9, CysLite SF-1 (steroidogenic factor-1 ligand binding domain, amino acids 218-461, C247S, C412S) (human, UniProt Q13285 218-461, C247S | C412S); assay: crystal structure; cleaved SF-1 CysLite (~5 mg/ml) incubated with 4-fold molar excess of TIF2 peptide at room temperature for 2 h; hanging drop vapor diffusion at 4 °C, Na acetate pH 4.6, glycerol, PEG 4000; crystals soaked 2 days with 6N-10CA; 2.59 Å; details: both partners purified
T9 construct: Steroidogenic factor-1 (SF-1); Expressed from the pLic-His vector; His tag cleaved with tobacco etch virus protease; In the crystal the pocket holds 6N-10CA (soaked in) and a bacterial phospholipid modelled as DPPE; also called SF-1 LBD; SF-1 CysLite; source: E. coli BL21(DE3)-pLysS, purified (HisTrap, TEV cleavage, second HisTrap, SEC)

[4] = 95% confidence intervals in brackets, read-out: EC50 (half maximal effective concentration)

T3 sequence (Q13285 218-461): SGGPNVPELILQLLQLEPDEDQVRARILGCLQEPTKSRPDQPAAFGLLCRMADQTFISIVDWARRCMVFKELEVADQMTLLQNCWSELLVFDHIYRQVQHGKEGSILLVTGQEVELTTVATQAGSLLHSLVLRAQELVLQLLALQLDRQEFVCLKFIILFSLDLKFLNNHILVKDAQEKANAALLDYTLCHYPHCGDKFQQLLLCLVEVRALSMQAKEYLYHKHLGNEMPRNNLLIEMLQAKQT
T6 sequence (Q13285 218-461 T272V): as the sequence (Q13285 218-461) above, with T55V counted along it
T4 sequence (Q13285 whole entry): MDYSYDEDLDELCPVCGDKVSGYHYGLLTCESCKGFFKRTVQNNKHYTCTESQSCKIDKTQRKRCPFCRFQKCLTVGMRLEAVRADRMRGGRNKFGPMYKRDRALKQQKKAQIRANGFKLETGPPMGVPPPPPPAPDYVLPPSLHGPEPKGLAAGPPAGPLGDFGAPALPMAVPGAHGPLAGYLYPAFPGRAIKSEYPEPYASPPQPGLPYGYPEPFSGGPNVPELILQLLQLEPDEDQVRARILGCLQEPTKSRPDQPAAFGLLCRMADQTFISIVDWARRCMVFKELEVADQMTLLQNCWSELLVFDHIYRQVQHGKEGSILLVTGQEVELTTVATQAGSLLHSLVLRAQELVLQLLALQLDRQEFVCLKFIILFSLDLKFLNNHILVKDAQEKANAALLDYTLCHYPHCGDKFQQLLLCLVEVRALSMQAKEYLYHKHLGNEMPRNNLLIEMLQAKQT
T7 sequence (Q13285 218-461 Y436F): as the sequence (Q13285 218-461) above, with Y219F counted along it
T5 sequence (Q13285 218-461 M268L): as the sequence (Q13285 218-461) above, with M51L counted along it
T1 sequence (O00482 whole entry): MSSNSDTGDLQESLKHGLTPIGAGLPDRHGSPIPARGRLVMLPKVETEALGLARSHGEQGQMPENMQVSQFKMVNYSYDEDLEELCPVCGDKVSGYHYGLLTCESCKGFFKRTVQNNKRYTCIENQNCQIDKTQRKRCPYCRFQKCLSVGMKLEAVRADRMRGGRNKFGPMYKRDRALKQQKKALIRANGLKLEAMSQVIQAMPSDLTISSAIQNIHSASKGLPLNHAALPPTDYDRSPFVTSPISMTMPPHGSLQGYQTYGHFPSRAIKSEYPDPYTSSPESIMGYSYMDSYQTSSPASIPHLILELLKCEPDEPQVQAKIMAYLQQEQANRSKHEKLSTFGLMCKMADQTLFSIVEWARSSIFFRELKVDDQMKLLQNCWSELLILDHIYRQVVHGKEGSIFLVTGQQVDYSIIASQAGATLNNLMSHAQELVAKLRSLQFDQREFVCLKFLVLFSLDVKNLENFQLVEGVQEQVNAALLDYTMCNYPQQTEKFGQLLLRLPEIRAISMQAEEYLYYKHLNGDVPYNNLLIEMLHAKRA
T8 sequence (Q13285 218-461 K440A): as the sequence (Q13285 218-461) above, with K223A counted along it
T2 sequence (Q13285 whole entry L265M): as the sequence (Q13285 whole entry) above, with L265M counted along it
T9 sequence (Q13285 218-461 C247S/C412S): as the sequence (Q13285 218-461) above, with C30S, C195S counted along it

Molecule: C=C(c1ccccc1)[C@@]12CC[C@H](NC(C)=O)C1CC(CCCCCCCCCC(=O)O)=C2c1ccccc1 (mixture of isomers) [2N-10CA]
- specificity for LRH-1 over SF-1 in reporter assays (LRH-1): specificity for LRH-1 was largely preserved
- LRH-1 activation in luciferase reporter assay (LRH-1): improved agonism
- activation of L265M SF-1 mutant (L265M SF-1 mutant): failed to activate

Molecule: C=C(c1ccccc1)[C@@]12CC[C@H](NC(N)=O)C1CC(CCCCCCCCCC(=O)O)=C2c1ccccc1 (mixture of isomers) [4N-10CA]
- specificity for LRH-1 over SF-1 in reporter assays (LRH-1): specificity for LRH-1 was largely preserved
- LRH-1 activation in luciferase reporter assay (LRH-1): improved agonism

Molecule: C=C(c1ccccc1)[C@@]12CC[C@H](NS(N)(=O)=O)[C@@H]1CC(CCCCCCCCCC(=O)O)=C2c1ccccc1 (racemic) [6N-10CA]
- Tm (melting temperature) (SF-1 LBD [1]): 58.3 °C
- positive shift in melting temperature (SF-1 LBD [1]): ~6.5 °C
- Ki (SF-1 LBD [2]): 60 nM
- affinity for SF-1 compared with LRH-1 (SF-1 LBD [2]; SF-1 Ki (Fig. 3C) vs LRH-1 value of ref 47): over two orders of magnitude lower
- improvement in affinity of 6N-10CA over 10CA (SF-1 LBD [2]; SF-1 binding, FP competition): ~4 fold
- increase in affinity of 6N-10CA over 6N (SF-1 LBD [2]; SF-1 binding, FP competition): ~20 fold
- EC50 (SF-1; read-out: EC50): 100 nM
- potency of 6N-10CA relative to 10CA (more potent) (SF-1; SF-1 luciferase reporter): 16 fold
- potency for SF-1 compared with LRH-1 (SF-1; SF-1 vs LRH-1 value of ref 47): nearly two times less
- luciferase signal at highest concentration (SF-1): drastic decrease in overall signal
- maximum activation (SF-1): ~1.7
- effect of deep pocket mutation on binding affinity (SF-1 LBD M268L): decreased SF-1 binding affinity
- effect of deep pocket mutation on binding affinity (SF-1 LBD T272V): decreased SF-1 binding affinity
- effect of pocket mouth mutation Y436 on binding affinity (SF-1 LBD Y436F): minimal impact
- effect of K440A mutation on binding affinity (SF-1 LBD K440A; compared to WT, FP competition): increased affinity for 6N-10CA was statistically insignificant

Molecule: C=C(c1ccccc1)[C@@]12CC[C@H](NS(N)(=O)=O)[C@@H]1CC(CCCCCCCCCC(=O)Nc1ccc3c(c1)C(=O)OC31c3ccc(O)cc3Oc3cc(O)ccc31)=C2c1ccccc1 (racemic) [6N-FAM, reference compound]
- Kd (SF-1 LBD [2]; WT SF-1 LBD, 10 nM 6N-FAM, read-out: probe affinity determined with forward binding assays): 12 nM
- Kd (SF-1 LBD M268L; M268L, 10 nM 6N-FAM, read-out: probe affinity determined with forward binding assays): 19.3 nM
- Kd (SF-1 LBD T272V; T272V, 10 nM 6N-FAM, read-out: probe affinity determined with forward binding assays): 10.9 nM
- Kd (SF-1 LBD Y436F; Y436F, 10 nM 6N-FAM, read-out: probe affinity determined with forward binding assays): 9.9 nM
- Kd (SF-1 LBD K440A; K440A, 10 nM 6N-FAM, read-out: probe affinity determined with forward binding assays): 5.5 nM

Molecule: C=C(c1ccccc1)[C@@]12CC[C@H](NS(N)(=O)=O)[C@@H]1CC(CCCCCC)=C2c1ccccc1 (racemic) [6N]
- Tm (melting temperature) (SF-1 LBD [1]): 58.6 °C
- positive shift in melting temperature (SF-1 LBD [1]): ~6.5 °C
- Ki (SF-1 LBD [2]): 1400 nM
- EC50 (SF-1; [4]): 130 nM
- luciferase signal at highest concentration (SF-1): drastic decrease in overall signal
- maximum activation (SF-1): ~1.4
- effect of pocket mouth mutation Y436 on binding affinity (SF-1 LBD Y436F): minimal impact

Molecule: C=C(c1ccccc1)[C@@]12CC[C@@H](O)[C@@H]1CC(CCCCCCCCCC(=O)O)=C2c1ccccc1 (racemic) [10CA]
- Tm (melting temperature) (SF-1 LBD [1]): 54.5 °C
- positive shift in melting temperature (SF-1 LBD [1]): ~2 °C
- Ki (SF-1 LBD [2]): 250 nM
- EC50 (SF-1; [4]): 1600 nM
- effect of deep pocket mutation on binding affinity (SF-1 LBD M268L): decreased SF-1 binding affinity
- effect of deep pocket mutation on binding affinity (SF-1 LBD T272V): decreased SF-1 binding affinity
- effect of pocket mouth mutation Y436 on binding affinity (SF-1 LBD Y436F): decreased 10CA binding affinity

Molecule: C=C(c1ccccc1)C12CCC(NC(C)=O)C1CC(CCCCCC)=C2c1ccccc1 (stereo not shown) [2N]
- SF-1 activation in luciferase reporter assay (SF-1): without activating SF-1
- LRH-1 activation in luciferase reporter assay (LRH-1): activated LRH-1

Molecule: C=C(c1ccccc1)C12CCC(OC(N)=O)C1CC(CCCCCC)=C2c1ccccc1 (stereo not shown) [3N]
- SF-1 activation in luciferase reporter assay (SF-1): reduced SF-1 activity

Molecule: C=C(c1ccccc1)C12CCC(NC(N)=O)C1CC(CCCCCC)=C2c1ccccc1 (stereo not shown) [4N]
- SF-1 activation in luciferase reporter assay (SF-1): without activating SF-1
- LRH-1 activation in luciferase reporter assay (LRH-1): activated LRH-1

Molecule: CCCCCCCCCCCC(=O)OC[C@H](COP(=O)([O-])OCC[N+](C)(C)C)OC(=O)CCCCCCCCCCC [DLPC, 1,2-dilauroyl-sn-glycero-3-phosphocholine, reference compound]
- Tm (melting temperature) (SF-1 LBD [1]): 52.2 °C

Molecule: KENALLRYLLDKDD [TIF2 peptide (fragment of the coactivator transcriptional intermediate factor 2)]
- binding result [3]: binds
